Results taken from publication PMC7589326, “Synthesis and Pharmacological Evaluation of Fluorinated Quinoxaline‐Based κ‐Opioid Receptor (KOR) Agonists Designed for PET Studies” (Chemmedchem, 2020).
Like-named read-outs stand apart in the source and are kept apart here.

Experiments:
KOR [1] = molecular target: T1, KOR (Cavia porcellus, UniProt P41144); test: biochemical; assay type: binding, guinea pig
T1 construct: The thawed guinea pig brain membrane preparation (about 100 μg of the protein) was incubated; tissue Harlan-Winkelmann, Borchen, Germany; host or cells: guinea pig brain membrane homogenate

MOR [2] = molecular target: T2, MOR (Cavia porcellus, UniProt A0ACM8Q262); test: biochemical; assay type: binding, guinea pig; conditions: for inhibition at 1 µM: read-out: % inhibition at 1 μM MOR [3H]DAMGO
DOR = molecular target: T3, DOR (Rattus norvegicus, UniProt P33533); test: biochemical; assay type: binding; conditions: for inhibition at 1 µM: read-out: % inhibition at 1 μM DOR [3H]DPDPE
T3 construct: preparations from rat brain were employed in the DOR assay; tissue Harlan-Winkelmann, Borchen, Germany; host or cells: rat brain (Sprague Dawley) membrane homogenate

σ1 receptor [3] = molecular target: T4, σ1 receptor (Cavia porcellus, UniProt Q60492); test: biochemical; assay type: binding, guinea pig; conditions: read-out: % inhibition at 1 μM σ1 (+)-[3H]pentazocine
T4 construct: Membrane preparations from guinea pig brain were used in the MOR and σ1 assay; tissue Harlan-Winkelmann, Borchen, Germany; host or cells: guinea pig brain membrane homogenate

σ2 receptor [4] = molecular target: T5, σ2 receptor (Rattus norvegicus, UniProt Q5U3Y7); test: biochemical; assay type: binding; conditions: for inhibition at 1 µM: read-out: % inhibition at 1 μM σ2 [3H]DTG
T5 construct: tissue Harlan-Winkelmann, Borchen, Germany; host or cells: rat liver membrane homogenate
T5 sequence (Q5U3Y7 1-176): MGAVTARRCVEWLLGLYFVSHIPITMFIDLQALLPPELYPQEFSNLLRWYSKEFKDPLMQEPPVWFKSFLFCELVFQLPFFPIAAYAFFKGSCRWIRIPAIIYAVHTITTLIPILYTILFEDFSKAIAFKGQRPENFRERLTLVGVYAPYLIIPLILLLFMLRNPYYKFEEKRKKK

mouse DCs (wild-type) = assay type: cell-based
[5] = test system: DCs from KOR-deficient mice; assay type: cell-based, mouse
human DCs = assay type: cell-based
[6] = test system: mouse T cells (wild-type); assay type: cell-based
KOR [7] = molecular target: T6, KOR (Homo sapiens, UniProt P41145); test: cell-based; parameters: expressed in transfected cells; host or cells: HEK 293T (ATCC CRL-11268)
Target sequence in this assay (P41145 whole entry, the tested form may be a part): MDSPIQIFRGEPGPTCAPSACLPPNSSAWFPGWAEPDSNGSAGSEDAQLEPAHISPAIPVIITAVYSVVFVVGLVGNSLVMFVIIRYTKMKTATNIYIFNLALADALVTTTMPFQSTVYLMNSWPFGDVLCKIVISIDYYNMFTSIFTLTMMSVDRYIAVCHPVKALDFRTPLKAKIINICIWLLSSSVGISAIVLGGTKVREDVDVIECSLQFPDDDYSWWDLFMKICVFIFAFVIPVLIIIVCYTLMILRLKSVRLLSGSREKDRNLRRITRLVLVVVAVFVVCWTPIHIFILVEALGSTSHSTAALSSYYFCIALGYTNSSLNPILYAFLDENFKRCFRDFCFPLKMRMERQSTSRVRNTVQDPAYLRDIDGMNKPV

KOR [8] = molecular target: T6, KOR; test: cell-based; parameters: expressed in transfected cells; host or cells: HTLA cells (stably expressing TEV-fused β-arrestin2)
Target sequence in this assay (P41145 whole entry, the tested form may be a part): as above
Target sequence in this assay (P32121 whole entry partner, the tested form may be a part): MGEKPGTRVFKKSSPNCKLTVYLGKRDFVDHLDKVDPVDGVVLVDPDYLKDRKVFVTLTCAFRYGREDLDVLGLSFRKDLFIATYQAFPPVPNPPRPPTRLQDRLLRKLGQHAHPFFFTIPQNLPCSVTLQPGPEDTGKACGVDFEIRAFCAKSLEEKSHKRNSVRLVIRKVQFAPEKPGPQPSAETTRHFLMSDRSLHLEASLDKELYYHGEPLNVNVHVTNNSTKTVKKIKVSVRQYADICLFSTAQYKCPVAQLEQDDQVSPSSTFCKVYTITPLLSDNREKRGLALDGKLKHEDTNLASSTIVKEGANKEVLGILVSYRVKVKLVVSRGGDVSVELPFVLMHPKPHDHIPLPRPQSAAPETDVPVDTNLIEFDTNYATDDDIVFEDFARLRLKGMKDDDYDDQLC

[9] = test system: T cells from KOR-deficient mice; assay type: cell-based, mouse
human T cells = assay type: cell-based
MOR [10] = molecular target: T2, MOR; conditions: cited from earlier work
σ1 receptor [11] = molecular target: T4, σ1 receptor; conditions: cited from earlier work
σ2 receptor [12] = molecular target: T5, σ2 receptor; conditions: cited from earlier work
[13] = Distribution coefficient logD7.4, shake flask method with radioligand; assay type: physicochemical
Experimental: The distribution coefficient at pH 7.4 (logD7.4) was determined by a shake flask method using the radioligand [^18F]‐2. After distribution of [^18F]‐2 between n‐octanol and phosphate buffered saline (pH 7.4) layers, the radioactivity in both layers was determined and set in ratio. According to this procedure, a logD7.4 value of 1.37±0.06 was determined indicating a moderate lipophilic compound, which should be able to penetrate into the central nervous system.
The lipophilicity of radioligands [^18F]‐2 and [^18F]‐14c was assessed by determination of the water n‐octan‐1‐ol distribution coefficient (logD) following a published procedure.57 In brief, approximately 3.2 MBq of radioligand [^18F]‐2 and approximately 0.3 MBq of radiotracer [^18F]‐14c, respectively, were mixed with equal amounts (0.6 mL) of phosphate buffered saline (PBS, pH 7.4) and n‐octan‐1‐ol. The resulting biphasic system was mixed vigorously for 3 min at room temperature and subsequently, the tubes were centrifuged (≥5 min). Then 400 μL of the n‐octan‐1‐ol layer was separated and 400 μL of PBS were added. The mixture was mixed vigorously for 10 min at room temperature followed by centrifugation of the tubes for≥5 min. Two samples of 100 μL of each layer were counted in a γ‐counter (2480 Automatic Gamma Counter Wizard^2, Perkin‐Elmer). The distribution coefficient was determined by calculating the ratio cpm(n‐octan‐1‐ol)/cpm(PBS) and expressed as logD 7.4 (log(cpmn‐octanol/cpmPBS)). Three independent experiments were performed in duplicate and data were provided as mean values ±standard deviation.

[14] = Stability in mouse serum (radio-HPLC); assay type: in vitro ADME; conditions: 90 min, 37 °C
Experimental: (§1) Enzymes present in blood serum could be able to transform the radioactive PET tracer [^18F]‐2. Therefore, the blood serum stability of [^18F]‐2 was investigated before testing the tracer in vivo. [^18F]‐2 was incubated with mouse and human serum for 90 min at 37 °C.
(§2) The serum stability of radioligands [^18F]‐2 and [^18F]‐14c was evaluated by incubation in mouse or human serum at 37 °C for up to 90 min. An aliquot of formulated [^18F]‐2 or [^18F]‐14c (20 μL, ca. 6.6 MBq and ca.10 MBq, respectively) was added to a sample of mouse serum (200 μL) or human serum (200 μL), and the mixtures were incubated at 37 °C. Samples of 20 μL each were taken after periods of 10, 30, 60 and 90 min and ice‐cold DNA‐grade CH3CN (100 μL) were added. After centrifugation for ≥5 min, the supernatant was analyzed by analytical radio‐HPLC B, method B.

[15] = Stability in human serum (radio-HPLC); assay type: in vitro ADME; conditions: 90 min, 37 °C
Experimental: as §1, §2

[16] = In vivo biodistribution, small animal PET in C57BL/6 mice; parameters: species or system mouse
Experimental: Next, the distribution of the PET tracer [^18F]‐2 in mice was investigated. For this purpose, [^18F]‐2 was injected into 15‐week‐old C57BL/6 mice. […] Already after 2 min the radioactivity was almost completely found in liver, kidneys and bladder. In the liver, the radioactivity remained almost constant over the period of 90 min (Figure 6). Besides a transient local increase in radioactivity in the submandibular and harderian glands, no significant accumulation of [^18F]‐2 in non‐excreting organs such as heart, lung and muscles as indicator for unspecific binding could be detected.
Adult C57BL/6 mice (n=2 male, 15 weeks, 28 g for [^18F]‐2; n=2, male, 10 weeks, 25 g for [^18F]‐14c) were anesthetized by isoflurane/O2 and one lateral tail vein was cannulated BY using a 27 G needle connected to 15 cm polyethylene catheter tubing. Radiotracers (∼500 kBq/g bodyweight, 15 MBq) were injected as a bolus (50 μL compound flushed with 100 μL saline) via the tail vein and subsequent PET scanning was performed.
Small Animal PET Scanning. PET experiments were carried out using a submillimeter high resolution (0.7 mm full width at half‐maximum) small animal scanner (32 module quadHIDAC, Oxford Positron Systems Ltd., Oxford, UK) with uniform spatial resolution (<1 mm) over a large cylindrical field (165 mm diameter, 280 mm axial length). List‐mode data were acquired for 90 min and reconstructed into dynamic time frames using an iterative reconstruction algorithm. Subsequently, the scanning bed was transferred to the computed tomography (CT) scanner (Inveon, Siemens Medical Solutions, U.S.), and a CT acquisition with a spatial resolution of 80 μm was performed for each mouse. Reconstructed image data sets were coregistered based on extrinsic markers attached to the multimodal scanning bed and the in‐house developed image analysis software MEDgical. Three‐dimensional volumes of interest (VOIs) were defined over the respective organs in CT data sets, transferred to the coregistered PET data, and analyzed quantitatively. Regional uptake was calculated as percentage of injected dose by dividing counts per milliliter in the VOI by total counts in the mouse multiplied by 100 (%ID/mL).

T3 sequence (P33533 whole entry): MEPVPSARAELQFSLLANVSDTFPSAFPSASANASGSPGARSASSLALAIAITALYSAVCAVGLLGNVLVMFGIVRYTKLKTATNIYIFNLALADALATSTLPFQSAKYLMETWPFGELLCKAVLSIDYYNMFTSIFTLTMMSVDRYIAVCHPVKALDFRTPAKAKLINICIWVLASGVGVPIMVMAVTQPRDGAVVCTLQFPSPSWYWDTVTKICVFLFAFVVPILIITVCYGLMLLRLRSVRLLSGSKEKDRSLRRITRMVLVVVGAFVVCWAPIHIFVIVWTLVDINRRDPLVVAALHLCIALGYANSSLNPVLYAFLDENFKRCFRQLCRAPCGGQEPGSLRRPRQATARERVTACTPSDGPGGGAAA
T1 sequence (P41144 whole entry): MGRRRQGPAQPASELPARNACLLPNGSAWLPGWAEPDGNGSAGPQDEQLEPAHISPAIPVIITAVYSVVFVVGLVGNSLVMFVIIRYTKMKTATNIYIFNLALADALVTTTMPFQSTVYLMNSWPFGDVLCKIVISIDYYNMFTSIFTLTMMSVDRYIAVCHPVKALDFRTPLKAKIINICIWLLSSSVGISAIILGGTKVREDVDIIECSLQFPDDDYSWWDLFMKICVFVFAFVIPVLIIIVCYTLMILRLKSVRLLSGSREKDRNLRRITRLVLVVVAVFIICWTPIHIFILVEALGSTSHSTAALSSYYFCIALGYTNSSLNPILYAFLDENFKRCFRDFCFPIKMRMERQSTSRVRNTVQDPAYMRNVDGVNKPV
T4 sequence (Q60492 whole entry): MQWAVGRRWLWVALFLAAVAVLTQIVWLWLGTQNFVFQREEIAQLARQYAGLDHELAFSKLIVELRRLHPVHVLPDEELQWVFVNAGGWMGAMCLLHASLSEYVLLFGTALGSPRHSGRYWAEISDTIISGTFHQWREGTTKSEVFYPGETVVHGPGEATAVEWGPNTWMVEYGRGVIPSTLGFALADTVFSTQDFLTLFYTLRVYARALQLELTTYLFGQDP
T2 sequence (A0ACM8Q262 1-400): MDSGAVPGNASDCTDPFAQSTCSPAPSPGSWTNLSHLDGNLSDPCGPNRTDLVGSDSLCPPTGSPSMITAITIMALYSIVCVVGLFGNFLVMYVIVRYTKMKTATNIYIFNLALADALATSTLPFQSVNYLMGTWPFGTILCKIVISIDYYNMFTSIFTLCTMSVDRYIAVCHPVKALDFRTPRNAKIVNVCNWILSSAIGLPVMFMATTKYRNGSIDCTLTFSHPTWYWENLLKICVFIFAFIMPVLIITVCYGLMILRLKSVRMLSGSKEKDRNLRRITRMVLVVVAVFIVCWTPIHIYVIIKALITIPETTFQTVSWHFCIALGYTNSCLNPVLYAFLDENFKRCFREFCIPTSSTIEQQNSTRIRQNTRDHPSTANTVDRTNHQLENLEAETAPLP

`CC(C)(C)OC(=O)N1CCN(C(=O)Cc2ccc(Cl)c(Cl)c2)[C@@H]2[C@@H](N3CC[C@H](O)C3)CCC[C@@H]21` (mixture of isomers) [12a, tert‐Butyl (4aR,5S,8aS)‐ and (4aS,5R,8aR)‐4‐[2‐(3,4‐dichlorophenyl)acetyl]‐5‐[(S)‐3‐hydroxypyrrolidin‐1‐yl]‐3,4,4 a,5,6,7,8,8 a‐octahydroquinoxaline‐1(2H)‐carboxylate] showed a Ki (KOR [1]; Ki±SEM KOR [3H]U-69,593) of 16 ± 2 nM, an inhibition at 1 µM (MOR [2]) of 9% and an inhibition at 1 µM (DOR) of 5%. For the same molecule, the inhibition at 1 µM (σ1 receptor [3]) was 0% and the inhibition at 1 µM (σ2 receptor [4]) was 0%.
With `COC(=O)N1CCN(C(=O)Cc2ccc(Cl)c(Cl)c2)[C@@H]2[C@@H](N3CC[C@H](O)C3)CCC[C@@H]21` (mixture of isomers) [12c, Methyl (4aR,5S,8aS)‐ and (4aS,5R,8aR)‐4‐[2‐(3,4‐dichlorophenyl)acetyl]‐5‐[(S)‐3‐hydroxypyrrolidin‐1‐yl]‐3,4,4 a,5,6,7,8,8 a‐octahydroquinoxaline‐1(2H)‐carboxylate] the Ki (KOR [1]; Ki±SEM KOR [3H]U-69,593) was 9.2 ± 6 nM, the inhibition at 1 µM (MOR [2]) was 5% and the Ki (DOR) was 693 nM. For the same molecule, the inhibition at 1 µM (σ1 receptor [3]) was 0%, the inhibition at 1 µM (σ2 receptor [4]) was 5% and the “expression of maturation marker CD11c and IFN-γ production” value (mouse DCs (wild-type)) was “significantly reduced”. The “anti-inflammatory effect (CD11c, IFN-γ) in DCs from KOR-deficient mice” value [5] was “completely abrogated”, the “expression of CD11c and production of IFN-γ in human DCs” value (human DCs) was “reduced” and the “expression of surface activation markers CD25, CD44 and CD69 and IFN-γ production” value [6] was “did not modulate the activation status”. For the same molecule, the EC50 (KOR [7]) was 0.19 nM, the Emax (KOR [7]; HEK-293T, read-out: cAMP E max) was 100% and the EC50 (KOR [8]) was 8.8 nM. For the same molecule, the Emax (KOR [8]; HTLA, read-out: β-Arrestin-2 E max) was 82%.
In the case of `COC(=O)N1CCN(C(=O)Cc2ccc(Cl)c(Cl)c2)[C@@H]2[C@@H](N3CC[C@@H](F)C3)CCC[C@@H]21` (mixture of isomers) [14c, Methyl (4aR,5S,8aS)‐ and (4aS,5R,8aR)‐4‐[2‐(3,4‐dichlorophenyl)acetyl]‐5‐[(R)‐3‐fluoropyrrolidin‐1‐yl]‐3,4,4 a,5,6,7,8,8 a‐ octahydroquinoxaline‐1(2H)‐carboxylate], the Ki (KOR [1]) is reported as 0.82 ± 0.69 nM, the “selectivity over the related MOR, DOR and σ receptors” value (KOR [1]) is reported as “more than 1000 fold” and the inhibition at 1 µM (MOR [2]) is reported as 0%. It also gave an inhibition at 1 µM (DOR) of 12%, an inhibition at 1 µM (σ1 receptor [3]) of 8% and a Ki (σ2 receptor [4]) of 962 nM. The “expression of maturation marker CD11c and IFN-γ production” value (mouse DCs (wild-type)) was “significantly reduced”, the “anti-inflammatory effect (CD11c, IFN-γ) in DCs from KOR-deficient mice” value [5] was “completely abrogated” and the “expression of CD11c and production of IFN-γ in human DCs” value (human DCs) was “reduced”. For the same molecule, the “anti-inflammatory cytokine IL-10 in cell cultures” value [6] was “significant upregulation”, the “expression of surface activation markers CD25, CD44 and CD69 and IFN-γ production” value [6] was “significantly reducing” and the “expression of activation markers or cytokine release in T cells from KOR-deficient mice” value [9] was “did not result in an altered expression”. The IL-10 induction (human T cells) was “only slightly but not significantly induced” and the “expression of surface activation markers CD25 and CD69 and IFN-γ secretion” value (human T cells) was “significantly reduce”.
In the case of `CC(C)(C)OC(=O)N1CCN(C(=O)Cc2ccc(Cl)c(Cl)c2)[C@@H]2[C@@H](N3CCCC3)CCC[C@@H]21` [1a], the Ki (MOR [10]; read-out: Ki MOR [3H]DAMGO) is listed as 260 nM, the “% inhibition at 1 μM σ1 (+)-[3H]pentazocine” value (σ1 receptor [11]) is listed as 12% and the “% inhibition at 1 μM σ2 [3H]DTG” value (σ2 receptor [12]) is listed as 16%.
For `COC(=O)N1CCN(C(=O)Cc2ccc(Cl)c(Cl)c2)[C@@H]2[C@@H](N3CCCC3)CCC[C@@H]21` [1c], the “% inhibition at 1 μM MOR [3H]DAMGO” value (MOR [10]) is given as 0%, the “% inhibition at 1 μM σ1 (+)-[3H]pentazocine” value (σ1 receptor [11]) is given as 0% and the “% inhibition at 1 μM σ2 [3H]DTG” value (σ2 receptor [12]) is given as 8%.
In the case of `COC(=O)N1CCN(C(=O)Cc2ccc(Cl)c(Cl)c2)[C@@H]2[C@@H](N3CC[C@@H]([18F])C3)CCC[C@@H]21` [[^18F]‐14c, Methyl (4aR,5S,8aS)‐ and (4aS,5R,8aR)‐4‐[2‐(3,4‐dichlorophenyl)acetyl]‐5‐[(R)‐3‐[^18F]fluoropyrrolidin‐1‐yl]‐3,4,4 a,5,6,7,8,8 a‐octahydroquinoxaline‐1(2H)‐carboxylate], the “concentration in the n-octanol layer relative to [18F]-2” value ([13]; n-octanol / PBS pH 7.4) is reported as 15 fold, the logD ([13]; n-octanol / phosphate buffered saline pH 7.4) is reported as 2.54 ± 0.22 and the “stability in mouse serum” value [14] is reported as “high stability”. For the same molecule, the “stability in human serum” value [15] was “high stability”, the “residual radioactivity in organs ex vivo (γ-counter)” value ([16]; 90 min after injection) was “mainly present in the excretion organs and in the urine” and the “radioactivity in the bones / defluorination” value ([16]; C57BL/6 mice, intravenous injection) was “fast defluorination”. The “clearance from the body” value ([16]; C57BL/6 mice, intravenous injection, hepatic and renal pathways) was “fast”.
Molecule DAMGO [reference compound] has a Kd (MOR [2]; read-out: Kd-value of radioligand, MOR assay) of 0.57 nM.
